# Data: patent publication US20050228046A1, “Alkylamine as an antimicrobial agent in ophthalmic compositions” (ADVANCED MEDICAL OPTICS, INC., priority 2004, published 2005)
# How the values were obtained:
# Test in all cases: Microbiology challenge test, log drop
# Assay type in all cases: cell-based
# Settings in all cases: for Log drop at 6 hour: Table 6: Myristylamine 0.001 % w/w
# [1] = test system: Fusarium solani, ATCC 36031
# Protocol: (§1) The following is the procedure by which various antimicrobial agents and solutions are tested for their ability to reduce microbial loads over short periods of time, typically 24 hours and less. The procedure is a basic microbiology challenge test, which involves the inoculation of test product aliquots with a known number of viable cells of several test organisms, and assay for the survivors at various time intervals. The results are used to calculate log drops at soak times and construct kill-curves (graphs of survivors versus time) if desired.
# (§2) Candida albicans, ATCC 10231, is one of five organisms specified per FDA and ISO/CLI tests for the testing of contact lens disinfectants (FDA Premarket Notification (510k) Guidance Document for Contact Lens Care Products, Appendix B, Apr. 1, 1997 and ISO/FDIS 14729: Ophthalmic optics-Contact lens care products-Microbiological requirements and test methods for products and regimens for hygienic management of contact lenses, January 2001). Contact lens disinfectants are also known as contact lens multi-purpose solutions when they are used for rinsing, cleaning, disinfection, storage and rewetting contact lenses. The five FDA/ISO specified test organisms are listed below: • Serratia marcescens, ATCC 13880 • Staphylococcus aureus, ATCC 6538 • Pseudomonas aeruginosa, ATCC 9027 • Candida albicans, ATCC 10231 • Fusarium solani, ATCC 36031
# (§3) The specific test procedure for testing antimicrobial activity against the five FDA/ISO specified test organisms is as follows (C. albicans is provided as a specific example): Test samples are sterile-filtered through a 0.22 micron sterile filter into sterile plastic high density polyethylene bottles or plastic flasks. A 10-mL aliquot of test sample is aseptically transferred into a sterile polystyrene plastic test tube. Sterile saline (0.90 w/v % NaCl) with 0.05 w/v % Polysorbate 80 (SS+TWEEN) is transferred into a separate control tube. All samples and control are stored at 20-25° C. throughout the duration of the test.
# (§4) Test cultures of Candida albicans, ATCC 10231 are prepared in the conventional manner. Candida albicans cultures are grown on agar slants from primary frozen, lyophilized or “Culti-loop®” cultures. Three mL of sterile 0.9% saline is used to gently dislodge culture growth from the agar surface. The resulting harvest is transferred to an appropriate screw cap test tube containing glass beads and vortexed for approximately one minute. The vortexed harvest is diluted as needed with sterile 0.9% saline to prepare the culture inoculum with a concentration of 1×10e8 CFU/mL. Fifty microliters of culture inoculum is added to 10.0 mL of each test sample and control, so that the final inoculum level is in the range of 1×10e5 to 1×10e6 CFU(colony forming units) per mL of Candida albicans, ATCC 10231. Each sample and control tube is vortexed briefly to disperse the inoculum. Contact time intervals for testing activity against Candida are typically 4 or 6 hours, to conform to the intended product label instructions for contact lens soak time.
# (§5) Aerobic Plate Count Methods are performed in order to quantitate test samples for their levels of survivors. At appropriate assay times, 0.5 mL well-vortexed aliquots are removed from sample tubes and added to glass test tubes containing 4.5 mL Letheen Neutralizing Broth media (Berton, Dickinson and Company, Sparks, Md.). After a previously determined, validated neutralizing time period, these samples are diluted 10-fold through serial dilutions using glass test tubes containing 4.5 mL Letheen Neutralizing Broth media. Aliquots of 0.1 mL are removed from each dilution tube and spread-plate applied to agar plates containing Sabouraud Dextrose Agar (SAB)(Berton, Dickinson and Company, Sparks, Md.). 10^1 to 10^4 CFU/mL survivor levels are quantitated. […]
# [2] = test system: Staphylococcus aureus, ATCC 6538
# Protocol: as §1, §2, §3, §4, §5
# [3] = test system: Pseudomonas aeruginosa, ATCC 9027
# Protocol: as §1, §2, §3, §4, §5
# [4] = test system: Candida albicans, ATCC 10231
# Protocol: as §1, §2, §3, §4, §5
# [5] = Table 2A: Myristylamine 0.0003 % w/w, Tetronic 1307 0.05, pH 7.8
# [6] = Table 2A: Myristylamine 0.0005 % w/w, Tetronic 1307 0.05, pH 7.8
# [7] = Table 3: Myristylamine 0.0005 w/v % with WSCP 0.001, NaClO2 0.01, NaCitrate 0.4, T1307 0.05
# [8] = Table 3: Myristylamine 0.0005 w/v %, WSCP 0.0, NaClO2 0.0, NaCitrate 0.0, T1307 0.05
# [9] = Table 4: Myristylamine 0.0003 w/v % with PHMB 0.00003, Tetronic 1107 0.05, pH 7.8
# [10] = Table 4: Myristylamine 0.0003 w/v %, PHMB 0, Tetronic 1107 0.05, pH 7.8
# [11] = Table 5: Myristylamine 0.0005 w/v % with Polyquaternium-1 0.001, NaCitrate 0.6, Tetronic 1304 0.05, pH 7.8
# [12] = Tween 80 0.0074, Polyquaternium-1 0, pH 7.3, 6 hour
# [13] = Tween 80 0.0074, with Polyquaternium-1 0.000075, pH 7.3, 6 hour
structure (smiles),measurement,setting,value
CCCCCCCCCCCCCCN [Myristylamine],Log Drop,[1]; [5],>4.34
same,Log Drop,[1]; [6],>4.34
same,Log Drop,[1]; [7],>4.34
same,Log Drop,[1]; [8],>4.34
same,Log Drop,[1]; [9],>4.34
same,Log Drop,[1]; [10],>4.34
same,Log Drop,[1]; [11],>4.34
same,Log drop at 6 hour,[1]; [12],3.73
same,Log drop at 6 hour,[1]; [13],3.12
same,Log Drop,[2]; [5],2.87
same,Log Drop,[2]; [6],4.8
same,Log Drop,[2]; [7],3.74
same,Log Drop,[2]; [8],2.93
same,Log Drop,[2]; [9],4.21
same,Log Drop,[2]; [10],2.87
same,Log Drop,[2]; [11],4.69
same,Log drop at 6 hour,[2]; [12],1.04
same,Log drop at 6 hour,[2]; [13],3.21
same,Log Drop,[3]; [5],>4.63
same,Log Drop,[3]; [6],>4.63
same,Log Drop,[3]; [7],>4.63
same,Log Drop,[3]; [8],>4.63
same,Log Drop,[3]; [9],>4.63
same,Log Drop,[3]; [10],>4.63
same,Log Drop,[3]; [11],>4.63
same,Log drop at 6 hour,[3]; [12],>4.58
same,Log drop at 6 hour,[3]; [13],>4.58
same,Log Drop,[4]; [5],3.67
same,Log Drop,[4]; [6],4.41
same,Log Drop,[4]; [7],2.95
same,Log Drop,[4]; [8],3.29
same,Log Drop,[4]; [9],3.31
same,Log Drop,[4]; [10],3.67
same,Log Drop,[4]; [11],4.52
same,Log drop at 6 hour,[4]; [12],>4.67
same,Log drop at 6 hour,[4]; [13],>4.67
same,antimicrobial activity against C. albicans,"[4]; result in words, Table 2A data",strong antimicrobial activity against C. albicans
